The results in this text go back to PMC3721637 (Chemistry & biology, 2009).

The nature of data set [1]: Biomarker dosing in rats following IFN-γ treatment, plasma level. It is filed as in vivo, rat.
Data set [2] addresses recombinant soluble HLA-DQ2 heterodimer (thrombin-cleaved DQ2-αI-gliadin peptide complex) (human) (UniProt P01909). Nature of the data set: SEC.

No end group written: not given here. carboxyfluorescein = carboxyfluorescein N-terminal label A value given as a limit tells only on which side of the number the result lay.

Turning to “LQLQPF (PQPHLPY)3PQPQPF [[^13C3]-HHH-33-mer]”, the “IFN-γ-treated rats with biomarker detected in plasma” value in data set [1] (20 mg oral gavage after 2 days i.v. IFN-γ, plasma 60 min, 3Q LC-MS/MS) is reported as “one of four”. In addition, the “plasma level in IFN-γ-treated animal relative to control animal” value in data set [1] (rats, oral biomarker, single animals with detectable plasma biomarker) is listed as ~ 10 fold.

As for carboxyfluorescein-LQLQPFPQPELPYPQPELPYPQPELPYPQPQPF [fluorescein-conjugated EEE-33-mer (synthetically deamidated 33-mer from α2-gliadin)], the percent of peptide bound in data set [2] was above 80%. As for carboxyfluorescein-LQLQPFPQPNLPYPQPNLPYPQPNLPYPQPQPF [fluorescein-conjugated NNN-33-mer biomarker], the fold by which EEE-33-mer binds more than this peptide in data set [2] is 15.6 fold.
